Entries after “also recorded” stand apart in the source; their conditions may differ.
Key:
Type in all cases: in vivo, Cryptotis parva
[1] = tested on: Least Shrew; assay: Emetic effect of arachidonic acid metabolites and leukotrienes in the Least Shrew; conditions: found experimentally
Experimental: Varying doses of leukotriene LTC4 were administered by intraperitoneal injection, and dose-response emetic effects recorded for 30 min post-injection observation period. The graph in FIG. 20 depicts enhancements in the frequency (mean±S.E.M.) of emesis.

[2] = tested on: GR73632-induced emesis and scratching in the Least Shrew; assay: Antagonist interaction study against GR73632 (5 mg/kg, i.p.)-induced emesis and scratching; conditions: for behavioral effect of antagonist by itself: 20 mg/kg dose, without GR73632
From the text: The present protocols were based upon preliminary studies as well as published findings in the Least Shrew. Darmani, 2001a; Darmani et al., 69 Pharmacol. Biochem. Behay. 239-49 (2001b). On the test day, the shrews were allowed to acclimate to the test laboratory for at least one hour prior to experimentation. To habituate the animals to the test environment, each shrew was randomly selected and transferred to a 20 cm×18 cm×21 cm clean clear plastic cage and offered four mealworms (Tenebrio sp.) 30 min prior to experimentation.
The latter doses of SP and GR73632 were chosen for subsequent antagonist interaction studies to pharmacologically characterize the role of NK1 receptors in the mediation of induced emesis by the use of: (1) two selective neurokinin NK1 receptor antagonists (CP99,994 and L733060) (Watson et al., 115 Br. J. Phramacol. 84-94 (1995); Guiard et al., 89 J. Neurochem. 54-63 (2004)); (2) an NK2 receptor antagonist (GR159897) (Beresford et al., 272 Eur. J. Pharmacol. 241-48 (1995)); and (3) an NK3 receptor antagonist (SB218795) (Salthun-Lassalle et al., 1995).
For the above drug interaction studies, different doses (i.p.) of either CP99,994 (0, 5, 10, and 20 mg/kg, n=10-14 shrews per group); L733060 (0, 5, 10, and 20 mg/kg, n=10-14 shrews per group), GR159897 (0 mg/kg and 20 mg/kg, n=8 per group) or SB218795 (0 or 20 mg/kg, n=7-8 per group) were administered to different groups of shrews 30 min prior to injection of an emetic dose (5 mg/kg, i.p.) of the NK1-receptor agonist GR73632. Emesis and scratchings were recorded for 30 min immediately following GR73632 administration as described above. The antiemetic effect of CP99,994 (0, 5, and 10 mg/kg, n=9-10 animals per group) was also investigated in a similar manner against SP (50 mg/kg, i.p.)-induced emesis.
(§1) The data on the frequency of emesis and scratchings were analyzed by the Kruskal-Wallis (KW) nonparametric one-way analysis of variance (ANOVA) and post hoc analysis by Dunn's multiple comparisons test or Mann-Whitney test. A P value of <0.05 was necessary to attain statistical significance. The incidence of emesis (number of shrews vomiting) was analyzed by the Fisher's exact test to determine whether there were differences between groups. When appropriate, pairwise comparisons were also made by this method. Two-way analysis of variance using the Kruskal-Wallis or Fisher's exact tests were initially utilized to respectively analyze the dose-response results of GR73632 on emesis and scratching behaviors, and percentage of shrews vomiting in saporin- and corresponding saline-pretreated control shrews. […] For some emesis data, the two-tailed Mann-Whitney test was used. The SP tissue concentration data were analyzed by a one-way ANOVA followed by Dunnett's t test as post hoc analysis. Fos-IR was quantified by counting immunopositive nuclei within each hemisection containing the region of interest (ROI). The number of nuclei was averaged across sections with the ROI for each animal, and the group mean and standard error obtained.

[3] = tested on: CIS-induced emesis in the Least Shrew; assay: Tropisetron, Δ^9-THC and dexamethasone alone or in combination against CIS (20 mg/kg)-induced emesis, 60 min
Experimental: Briefly, all animals were randomly divided into two groups. On the test day, shrews were habituated to the laboratory environment for at least 1 hr prior to experimentation. […] All drugs were administered at a volume of 0.1 ml/10 g body weight. Immediately following the second injection, each shrew was placed in the observation cage, and both the number of animals vomiting per group and the frequency of vomiting (oral ejections of food or liquid) were recorded for the next 60 min
Poisson regression and logistic regression analyses were employed for two-way analysis of vomiting frequency and protection from emesis, respectively. […] Data regarding the frequency of emesis were analyzed by the Kruskal-Wallis nonparametric one-way analysis of variance (ANOVA), and post hoc analysis by Dunn's multiple comparisons test. The incidence of emesis (number of animals vomiting) was analyzed by Fisher's exact test to determine whether there were differences between groups, and when appropriate, pairwise comparisons were also made. A p value of<0.05 was necessary to achieve statistical significance.

[4] = tested on: Least Shrew; assay: Dose response emesis and scratching studies with tachykinin receptor agonists
From the text: The present protocols were based upon preliminary studies as well as published findings in the Least Shrew. Darmani, 2001a; Darmani et al., 69 Pharmacol. Biochem. Behay. 239-49 (2001b). On the test day, the shrews were allowed to acclimate to the test laboratory for at least one hour prior to experimentation. To habituate the animals to the test environment, each shrew was randomly selected and transferred to a 20 cm×18 cm×21 cm clean clear plastic cage and offered four mealworms (Tenebrio sp.) 30 min prior to experimentation. […]
as §1

[5] = 1 mg/kg i.p., administered alone
[6] = 5 mg/kg i.p., administered alone
[7] = tropisetron 0.1 mg/kg with 0.5 mg/kg Δ^9-THC
[8] = tropisetron 0.25 mg/kg with 0.25 mg/kg Δ^9-THC
[9] = tropisetron 0.25 mg/kg with 0.5 mg/kg Δ^9-THC
[10] = tropisetron 1 mg/kg with 0.1 mg/kg Δ^9-THC
[11] = tropisetron 1 mg/kg with 0.25 mg/kg Δ^9-THC
[12] = tropisetron 1 mg/kg with 0.5 mg/kg Δ^9-THC
[13] = tropisetron 5 mg/kg with 0.1 mg/kg Δ^9-THC
[14] = tropisetron 5 mg/kg with 0.25 mg/kg Δ^9-THC
[15] = tropisetron 5 mg/kg with 0.5 mg/kg Δ^9-THC

## O=C(O)CCC/C=C\C[C@H]1C(=O)C[C@@H](O)[C@@H]1/C=C/[C@@H](O)CCCCCO [20 Hydroxy PGE2]
[1]
  emesis in the Least Shrew: produce emesis

## O=C(O)CCC/C=C\C[C@@H]1[C@@H](/C=C/[C@@H](O)CCCCCO)[C@H](O)C[C@@H]1O [20 Hydroxy PGE2α]
[1]
  emesis in the Least Shrew: produce emesis

## COC1(C[S@@+]([O-])c2ccccc2)CCN(CCc2c[nH]c3ccc(F)cc23)CC1 [GR159897, 5-Flouro-3-[2-[4-methoxy-4-[[(R)-phenylsulphinyl]methyl]-1-piperidinyl]ethyl]-1H-indole]
[2]
  behavioral effect of antagonist by itself: did not produce any behavioral effect
[2]; antagonist 20 mg/kg i.p.
  enhancement of frequency of GR73632-induced emesis: did not attain significance
  enhancement of frequency of GR73632-induced scratching: did not attain significance
  percentage of shrews vomiting in response to GR73632: failed to affect

## Cl.FC(F)(F)c1cc(CO[C@H]2CCCN[C@H]2c2ccccc2)cc(C(F)(F)F)c1 [L733060]
[2]; antagonist 5 mg/kg i.p.
  reduction in frequency of GR73632-induced emesis: 62%
  reduction in percentage of shrews vomiting in response to GR73632: 33%
  reduction of GR73632-induced scratchings: 63%
[2]; antagonist 10 mg/kg i.p.
  reduction in frequency of GR73632-induced emesis: 74%
  reduction in percentage of shrews vomiting in response to GR73632: 53%
  reduction of GR73632-induced scratchings: 69%
[2]; antagonist 20 mg/kg i.p.
  reduction in frequency of GR73632-induced emesis: 95%
  reduction in percentage of shrews vomiting in response to GR73632: 73%
  reduction of GR73632-induced scratchings: 54%
[2]; at highest tested effective antiemetic doses
  onset of first emesis induced by GR73632: only delayed the onset of first emesis

## CCCCC/C=C\C\C=C/C=C/C=C/[C@@H]1O[C@H]1CCCC(=O)O [LTA4]
[1]
  emesis in the Least Shrew: non-emetic

## CCCCC/C=C\C[C@@H](O)/C=C/C=C/C=C\[C@@H](O)CCCC(=O)O [LTB4]
[1]
  emesis in the Least Shrew: non-emetic

## CCCCC/C=C\C\C=C/C=C/C=C/[C@@H](SC[C@H](NC(=O)CC[C@H](N)C(=O)O)C(=O)NCC(=O)O)[C@@H](O)CCCC(=O)O [LTC4]
[1]
  emesis in the Least Shrew: potent emetogens; also recorded: produce emesis

## CCCCC/C=C\C\C=C/C=C/C=C/[C@@H](SC[C@H](N)C(=O)NCC(=O)O)[C@@H](O)CCCC(=O)O [LTD4]
[1]
  emesis in the Least Shrew: potent emetogens; also recorded: produce emesis

## CCCCC/C=C\C\C=C/C=C/C=C/[C@@H](SC[C@H](N)C(=O)O)[C@@H](O)CCCC(=O)O [LTE4]
[1]
  emesis in the Least Shrew: non-emetic

## CCCCC/C=C\C\C=C/C=C/C=C/[C@@H](SC[C@H](NC(=O)CC[C@@H](N)C(=O)O)C(=O)O)[C@@H](O)CCCC(=O)O [LTF4]
[1]
  emesis in the Least Shrew: non-emetic

## CCCCC[C@H](O)/C=C/[C@H]1C(=O)C[C@H](O)[C@@H]1C/C=C\CCCC(=O)O [PGD2]
[1]
  emesis in the Least Shrew: non-emetic

## CCCCC[C@H](O)/C=C/[C@H]1[C@H](O)CC(=O)[C@@H]1C/C=C\CCCC(=O)O [PGE2]
[1]
  emesis in the Least Shrew: non-emetic

## CCCCC[C@H](O)/C=C/[C@@H]1[C@@H](C/C=C\CCCC(=O)O)[C@@H](O)C[C@H]1O [PGF2α]
[1]
  emesis in the Least Shrew: produce emesis

## CCCCC[C@@H](/C=C/[C@@H]1[C@@H](C/C=C\CCCC(=O)O)[C@@H]2C[C@H]1OO2)OO [PGG2]
[1]
  emesis in the Least Shrew: produce emesis

## CCCCC[C@H](O)/C=C/[C@@H]1[C@H]2C/C(=C/CCCC(=O)O)O[C@H]2C[C@H]1O [PGI2]
[1]
  emesis in the Least Shrew: non-emetic

## COC(=O)C(NC(=O)c1cc(-c2ccccc2)nc2ccccc12)c1ccccc1 (centres unmarked) [SB218795]
[2]
  behavioral effect of antagonist by itself: did not produce any behavioral effect
[2]; antagonist 20 mg/kg i.p.
  enhancement of frequency of GR73632-induced emesis: did not attain significance
  enhancement of frequency of GR73632-induced scratching: did not attain significance
  percentage of shrews vomiting in response to GR73632: failed to affect

## CCCCC/C=C\C/C=C\C/C=C\C/C=C\CCCC(=O)O [arachidonic acid]
[1]
  emesis in the Least Shrew: produce emesis

## CN1[C@@H]2CC[C@H]1C[C@@H](OC(=O)c1c[nH]c3ccccc13)C2 [tropisetron]
[3]; 0.25 mg/kg i.p., administered alone
  reduction in frequency of CIS-induced emesis: 79%
[3]; [5]
  reduction in frequency of CIS-induced emesis: 94%
  reduction in percentage of shrews vomiting in response to CIS: 75%
[3]; [6]
  reduction in frequency of CIS-induced emesis: 99.8%
  reduction in percentage of shrews vomiting in response to CIS: 92%
[3]; drug by itself, dose-dependent
  reduction in number of shrews vomiting, over tested doses: completely protected
[3]; tropisetron 0.025 mg/kg with 0.25 mg/kg Δ^9-THC
  reduction in frequency of CIS-induced emesis: 60%
[3]; tropisetron 0.1 mg/kg with 0.25 mg/kg Δ^9-THC
  reduction in frequency of CIS-induced emesis: 59.8%
[3]; [7]
  reduction in frequency of CIS-induced emesis: 57.5%
  reduction in percentage of shrews vomiting in response to CIS: 58%
[3]; tropisetron 0.25 mg/kg with 0.1 mg/kg Δ^9-THC, vs 0 mg/kg tropisetron
  reduction in frequency of CIS-induced emesis: 88%
[3]; [8]
  reduction in frequency of CIS-induced emesis: 84%
  reduction in percentage of shrews vomiting in response to CIS: 50%
[3]; [9]
  reduction in frequency of CIS-induced emesis: 70%
  reduction in percentage of shrews vomiting in response to CIS: 50%
[3]; [10]
  reduction in frequency of CIS-induced emesis: 90.6%
  reduction in percentage of shrews vomiting in response to CIS: 78%
[3]; [11]
  reduction in frequency of CIS-induced emesis: 100%
  reduction in percentage of shrews vomiting in response to CIS: 100%
[3]; [12]
  reduction in frequency of CIS-induced emesis: 70.1%
  reduction in percentage of shrews vomiting in response to CIS: 83%
[3]; [13]
  reduction in frequency of CIS-induced emesis: 89.4%
  reduction in percentage of shrews vomiting in response to CIS: 71%
[3]; [14]
  reduction in frequency of CIS-induced emesis: 93%
  reduction in percentage of shrews vomiting in response to CIS: 70%
[3]; [15]
  reduction in frequency of CIS-induced emesis: 69.8%
  reduction in percentage of shrews vomiting in response to CIS: 58%
[3]; tropisetron, all doses, combined with 1 mg/kg or 5 mg/kg Δ^9-THC
  effect on frequency of CIS-induced vomiting: None of the cited doses of tropisetron had a significant effect
[3]; tropisetron, any dose, with 1 mg/kg and 5 mg/kg Δ^9-THC
  effect on percentage of shrews vomiting: no dose of tropisetron significantly altered

## [Lys^3, Gly^8-R-gamma-lactam-leu^9]Neurokinin-A (3-10) [GR64349]
[4]; doses up to 10 mg/kg i.p.
  produced emesis or significant scratchings: neither

## [Sar^9, Met (O2)”]-Substance P [Sar Met-SP]
[4]; 1 mg/kg i.p.
  percentage of shrews vomiting: 20%
[4]; 5 mg/kg i.p.
  percentage of shrews vomiting: 33%
[4]; 10 mg/kg i.p.
  percentage of shrews vomiting: 0%

## acetyl-[Arg, Sar^9, Met (O2)^11]-SP (6-11) [ASMSP]
[4]; 5 mg/kg i.p.
  percentage of shrews vomiting: 37%
[4]; 10 mg/kg i.p.
  percentage of shrews vomiting: 50%
[4]; 20 mg/kg i.p.
  percentage of shrews vomiting: 50%
